Key:
CYP2D6 = target: T1, CYP2D6 (Homo sapiens, UniProt P10635); test: CYP inhibition assay in human liver microsome; assay type: in vitro ADME; conditions: human liver microsomes, probe dextromethorphan, 10µM test compound, dextromethorphan substrate, <0: not or weak inhibitor, read-out: CYP 2D6 inhibition %@10µM
T1 construct: tissue BD-Gentest 452117; host or cells: human liver microsomes
Description: This is a high throughput screening assay used for assessment of reversible inhibition of CYP2D6 activity of test compounds in human liver microsome (HLM) in early discovery stage. Table 4. Chemicals and materials used in the CYP inhibition assay
10 mM DMSO stock solutions of test compounds were diluted in DMSO to generate 2 mM intermediate stock solution. 250 nL of intermediate stock solution were transferred in duplicate into 3 separate 384 well microtitre plates (assay-ready plates). A mixture of HLM and each substrate was made up. 45 µL of HLM substrate mix was then transferred to each well of an assay ready plate and mixed. The negative (solvent) and positive control (standard inhibitor for CYP 2D6) were included in each assay ready plate. The assay ready plate was warmed to 37 °C in an incubator over 10 minutes. 5 µL pre-warmed NADPH regenerating system was added to each incubation well to start the reaction. Final incubation volume was 50 µL. The assay plate then was placed back in the 37 °C incubator. After 10-minute incubation, incubates were quenched by addition of 50 µL 100% acetonitrile containing internal standards (20 ng/mL D3-Dextrorphan). The supernatants were collected for RapidFire/MS/MS analysis.
RapidFire online solid phase extraction/sample injection system (Agilent) coupled with API4000 triple quadrupole mass spectrometer (AB Sciex) were used for sample analysis. The mobile phase composed of acetonitrile and water supplemented with 0.1% formic acid. A C4 solid phase extraction cartridge is used for sample separation. MS detection is achieved in positive ion MRM mode.
Peak areas for substrate, metabolite and internal standard are determined using the RapidFire integrator software (version 3.6.12009.12296). Peak area ratios (PAR) of metabolite and internal standard (stable-labelled metabolite) are then calculated. The measurement window for each experiment is then defined: • PAR (0% activity)= average PAR for all incubations containing concentrated inhibitor; • Par (100% activity)= average PAR for all incubations containing no inhibitor (DMSO controls); • % Activity (test inhibitor) • =[PAR(test inhibitor)-PAR(0% activity)]/[PAR(100% activity)-PAR(0% activity)]; • % Inhibition (test inhibitor)=100-% Activity (test inhibitor).

hTLR9 = target: T2, hTLR9 (Homo sapiens, UniProt Q9NR96); test: HEK293-Blue-hTLR-9 cells assay (SEAP reporter, ODN2006 stimulation); assay type: cell-based; design: host or cells: HEK293 (HEK-Blue); conditions: HEK293-Blue-hTLR9 cells, ODN2006, 20 hrs; read-out: HEK/hTLR9 IC50
T2 sequence (Q9NR96 26-1032): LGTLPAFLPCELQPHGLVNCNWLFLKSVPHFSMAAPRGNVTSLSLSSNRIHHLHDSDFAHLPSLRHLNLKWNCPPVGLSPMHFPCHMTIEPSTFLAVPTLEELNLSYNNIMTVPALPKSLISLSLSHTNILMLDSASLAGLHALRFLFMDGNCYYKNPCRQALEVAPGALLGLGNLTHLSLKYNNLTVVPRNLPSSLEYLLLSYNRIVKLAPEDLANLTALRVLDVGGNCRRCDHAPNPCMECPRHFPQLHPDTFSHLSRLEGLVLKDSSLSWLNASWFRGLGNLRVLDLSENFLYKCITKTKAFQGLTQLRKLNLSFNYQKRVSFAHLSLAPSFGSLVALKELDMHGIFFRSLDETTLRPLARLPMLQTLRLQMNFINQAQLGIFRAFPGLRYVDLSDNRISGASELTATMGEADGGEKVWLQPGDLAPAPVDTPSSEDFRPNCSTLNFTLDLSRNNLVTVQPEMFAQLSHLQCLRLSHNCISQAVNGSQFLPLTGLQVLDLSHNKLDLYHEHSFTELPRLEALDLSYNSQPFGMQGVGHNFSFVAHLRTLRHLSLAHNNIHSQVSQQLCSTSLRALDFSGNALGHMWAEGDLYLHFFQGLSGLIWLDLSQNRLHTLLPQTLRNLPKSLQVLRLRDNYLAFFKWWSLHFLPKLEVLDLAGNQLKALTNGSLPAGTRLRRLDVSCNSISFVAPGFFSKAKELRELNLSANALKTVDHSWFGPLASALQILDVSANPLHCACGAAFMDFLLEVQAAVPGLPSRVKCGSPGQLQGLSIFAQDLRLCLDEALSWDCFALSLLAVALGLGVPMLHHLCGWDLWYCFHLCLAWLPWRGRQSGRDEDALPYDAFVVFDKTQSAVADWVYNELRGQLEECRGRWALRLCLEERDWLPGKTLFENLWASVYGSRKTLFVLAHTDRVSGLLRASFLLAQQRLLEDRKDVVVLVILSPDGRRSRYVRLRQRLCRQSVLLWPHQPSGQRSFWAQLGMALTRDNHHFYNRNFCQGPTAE
Description: A stable HEK293-Blue-hTLR-9 cell line was purchased from InvivoGen (Cat.#: hkb-htlr9, San Diego, California, USA). These cells were originally designed for studying the stimulation of human TLR9 by monitoring the activation of NF-κB. A SEAP (secreted embryonic alkaline phosphatase) reporter gene was placed under the control of the IFN-β minimal promoter fused to five NF-κB and AP-1-binding sites. The SEAP was induced by activating NF-κB and AP-1 via stimulating HEK-Blue hTLR9 cells with TLR9 ligands. Therefore, the reporter expression was declined by TLR9 antagonist under the stimulation of a ligand, such as ODN2006 (Cat.#: tlrl-2006-1, Invivogen, San Diego, California, USA), for incubation of 20 hrs. The cell culture supernatant SEAP reporter activity was determined using QUANTI-Blue™ kit (Cat.#: rep-qb 1, Invivogen, San Diego, California, USA) at a wavelength of 640 nm, a detection medium that turns purple or blue in the presence of alkaline phosphatase.
HEK293-Blue-hTLR9 cells were incubated at a density of 250,000-450,000 cells/mL in a volume of 170 µL in a 96-well plate in Dulbecco's Modified Eagle's medium (DMEM) containing 4.5 g/L glucose, 50 U/mL penicillin, […], […], 2 mM L-glutamine, 10% (v/v) heat-inactivated fetal bovine serum with addition of 20 µL test compound in a serial dilution in the presence of final DMSO at 1% and 10 µL of 20uM ODN2006 in above DMEM, perform incubation under 37 °C in a CO2 incubator for 20 hrs. Then 20 µL of the supernatant from each well was incubated with 180 µL Quanti-blue substrate solution at 37 °C for 2 hrs and the absorbance was read at 620-655 nm using a spectrophotometer. The signaling pathway that TLR9 activation leads to downstream NF-κB activation has been widely accepted, and therefore similar reporter assay was modified for evaluating TLR9 antagonist.

T1 sequence (P10635 whole entry): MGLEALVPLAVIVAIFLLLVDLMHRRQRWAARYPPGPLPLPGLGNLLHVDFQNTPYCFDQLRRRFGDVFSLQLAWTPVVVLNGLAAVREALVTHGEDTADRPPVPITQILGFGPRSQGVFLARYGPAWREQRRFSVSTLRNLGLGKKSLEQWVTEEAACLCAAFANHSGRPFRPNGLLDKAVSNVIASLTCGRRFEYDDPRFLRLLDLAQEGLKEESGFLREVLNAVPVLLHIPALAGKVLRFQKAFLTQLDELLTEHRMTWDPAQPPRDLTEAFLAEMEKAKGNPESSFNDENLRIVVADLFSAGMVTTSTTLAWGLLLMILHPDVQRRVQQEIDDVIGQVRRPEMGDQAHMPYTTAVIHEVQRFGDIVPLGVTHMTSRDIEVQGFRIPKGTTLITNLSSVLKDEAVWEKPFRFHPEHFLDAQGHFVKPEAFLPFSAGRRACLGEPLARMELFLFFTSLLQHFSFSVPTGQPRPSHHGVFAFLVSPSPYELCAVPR

C[C@@H]1CN(c2ccc(C#N)c3ncccc23)C[C@H](CN2C[C@H]3CN(c4ccc5c(n4)CCNC5)CC[C@H]32)O1 (single isomer, unassigned) [Example 55]
inhibition at 10 min, 10 µM (CYP2D6): 10.5% | IC50 (hTLR9): < 32 nM

C[C@@H]1CN(c2ccc(C#N)c3ncccc23)C[C@H](CN2CCN(c3cnc4c(c3)CN[C@@H]4C)CC2)O1 (single isomer, unassigned) [Example 68]
inhibition at 10 min, 10 µM (CYP2D6): 6% | IC50 (hTLR9): 84 nM

C[C@@H]1CN(c2ccc(C#N)c3ncccc23)C[C@H](CN2CCN(c3cc4c(cn3)[C@@H](C)NCC4)CC2)O1 (single isomer, unassigned) [Example 73]
inhibition at 10 min, 10 µM (CYP2D6): 6% | IC50 (hTLR9): 82 nM

C[C@@H]1CN(c2ccc(C#N)c3ncccc23)C[C@H](CN2CCN(c3cc4c(cn3)CCN[C@@H]4C)CC2)O1 (single isomer, unassigned) [Example 74]
inhibition at 10 min, 10 µM (CYP2D6): 6% | IC50 (hTLR9): 89 nM

C[C@@H]1CN(c2ccc(C#N)c3ncccc23)C[C@H](CN2CCN(c3cc4c(cn3)C[C@H](C)NC4)CC2)O1 (single isomer, unassigned) [Example 76]
inhibition at 10 min, 10 µM (CYP2D6): 6% | IC50 (hTLR9): 97 nM

C[C@@H]1CN(c2ccc(C#N)c3nccnc23)C[C@H](CN2CCN(c3ccc4c(n3)CN[C@H]4C)CC2)O1 (single isomer, unassigned) [Example 78]
inhibition at 10 min, 10 µM (CYP2D6): 0.5% | IC50 (hTLR9): 131 nM

C[C@@H]1CN(c2ccc(C#N)c3nccnc23)C[C@H](CN2CCN(c3ccc4c(n3)CN[C@@H]4C)CC2)O1 (single isomer, unassigned) [Example 79]
inhibition at 10 min, 10 µM (CYP2D6): 5.5% | IC50 (hTLR9): 108 nM

C[C@@H]1CN(c2ccc(C#N)c3nccnc23)C[C@H](CN2CCN(c3cc4c(cn3)C[C@H](C)NC4)CC2)O1 (single isomer, unassigned) [Example 81]
inhibition at 10 min, 10 µM (CYP2D6): 3.5% | IC50 (hTLR9): 96 nM

C[C@@H]1Cc2cc(N3CCN(C[C@H]4CN(c5ccc(C#N)c6nccnc56)C[C@@H](C)O4)CC3)ncc2CN1 (single isomer, unassigned) [Example 83]
inhibition at 10 min, 10 µM (CYP2D6): -8% | IC50 (hTLR9): 124 nM

C[C@@H]1CN(c2ccc(C#N)c3nccnc23)C[C@H](CN2CCN(c3cc4c(cn3)CN[C@@H](C)C4)CC2)O1 (single isomer, unassigned) [Example 84]
inhibition at 10 min, 10 µM (CYP2D6): -1.5% | IC50 (hTLR9): 90 nM

C[C@@H]1CN(c2ccc(C#N)c3ncccc23)C[C@H](CN2CC3[C@H](C2)OCCN3c2ccc3c(n2)CCNC3)O1 (stereo in doubt) [Example 53, cis-5-[(2R,6S)-2-methyl-6-[[4-(5,6,7,8-tetrahydro-1,6-naphthyridin-2-yl)-2,3,4a,5,7,7a-hexahydropyrrolo[3,4-b][1,4]oxazin-6-yl]methyl]morpholin-4-yl]quinoline-8-carbonitrile]
inhibition at 10 min, 10 µM (CYP2D6): 24% | IC50 (hTLR9): 69 nM

C[C@@H]1CN(c2ccc(C#N)c3ncccc23)C[C@H](CN2CCN(c3cccc4c3CNC4)CC2)O1 [Example 2, 5-[(2S,6R)-2-[(4-isoindolin-4-ylpiperazin-1-yl)methyl]-6-methyl-morpholin-4-yl] quinoline-8-carbonitrile]
inhibition at 10 min, 10 µM (CYP2D6): -5% | IC50 (hTLR9): 58 nM

C[C@@H]1CN(c2ccc(C#N)c3ncccc23)C[C@H](CN2CCN(c3ccc4c(c3)CCNC4)CC2)O1 [Example 5, 5-[(2R,6S)-2-methyl-6-[[4-(1,2,3,4-tetrahydroisoquinolin-6-yl)piperazin-1-yl]methyl]morpholin-4-yl]quinoline-8-carbonitrile]
inhibition at 10 min, 10 µM (CYP2D6): 0.5% | IC50 (hTLR9): 64 nM

C[C@@H]1CN(c2ccc(C#N)c3ncccc23)C[C@H](CN2CCN(c3ccc4c(c3)CNC4)CC2)O1 [Example 7, 5-[(2S,6R)-2-[(4-isoindolin-5-ylpiperazin-1-yl)methyl]-6-methyl-morpholin-4-yl] quinoline-8-carbonitrile]
inhibition at 10 min, 10 µM (CYP2D6): 15% | IC50 (hTLR9): 89 nM

C[C@@H]1CN(c2ccc(C#N)c3ncsc23)C[C@H](CN2CCN(c3cnc4c(c3)CNC4)CC2)O1 [Example 8, 7-[(2S,6R)-2-[[4-(6,7-dihydro-5H-pyrrolo[3,4-b]pyridin-3-yl)piperazin-1-yl]methyl]-6-methyl-morpholin-4-yl]-1,3-benzothiazole-4-carbonitrile]
inhibition at 10 min, 10 µM (CYP2D6): 13% | IC50 (hTLR9): 48 nM

C[C@@H]1CN(c2ccc(C#N)c3ncccc23)C[C@H](CN2CCN(c3ncnc4c3CNCC4)CC2)O1 [Example 61, 5-[(2R,6S)-2-methyl-6-[[4-(5,6,7,8-tetrahydropyrido[4,3-d]pyrimidin-4-yl)piperazin-1-yl]methyl]morpholin-4-yl]quinoline-8-carbonitrile]
IC50 (hTLR9): 229 nM

C[C@@H]1CN(c2ccc(C#N)c3ncccc23)C[C@H](CN2CCN(c3nccc4c3CCNC4)CC2)O1 [Example 62, 5-[(2R,6S)-2-methyl-6-[[4-(5,6,7,8-tetrahydro-2,6-naphthyridin-1-yl)piperazin-1-yl]methyl]morpholin-4-yl]quinoline-8-carbonitrile]
IC50 (hTLR9): 151 nM

COc1ccc(N2CCN(C[C@H]3CN(c4ccc(C#N)c5ncccc45)C[C@@H](C)O3)CC2)cc1 [Example R1, 5-[(2S,6R)-2-[[4-(4-methoxyphenyl)piperazin-1-yl]methyl]-6-methyl-morpholin-4-yl]quinoline-8-carbonitrile, reference compound]
IC50 (hTLR9): 6620 nM

C[C@@H]1CN(c2ccc(C#N)c3ncccc23)C[C@H](CN2CCN(c3ccc(Cl)cc3)CC2)O1 [Example R2, 5-[(2S,6R)-2-[[4-(4-chlorophenyl)piperazin-1-yl]methyl]-6-methyl-morpholin-4-yl]quinoline-8-carbonitrile, reference compound]
IC50 (hTLR9): 7030 nM
